Results on one compound are retold here after patent publication US7667052B2 (Eisai R&D Management Co., Ltd., priority 2003, dated 2010).

What all share (assay type): cell-based
Experiment [1] deals with VEGF production in U251 human glioma cell. Nature of the experiment: VEGF production suppressing action under low oxygen, ELISA. As to conditions: U251, low oxygen stimulation. Here is the method: U251 human glioma cell cultured in DULBECCO-modified eagle medium (DMEM; manufactured by SIGMA Co., Ltd.) containing 10% fetal calf serum, penicillin (100 unit/ml) and streptomycin (100 μg/ml) was dispensed in 96-well plates by 4×10^4 cells/well. After culturing at 37° C. overnight in a CO2 incubator (5% CO2), the media were removed, and 180 μl of the above-mentioned incubation solution was charged. After adding 20 μL of the above-mentioned incubation solution containing the test compound diluted with 3-fold succession, they were incubated in a low oxygen (2% O2) incubator for 18 hours. The supernatants thereof were measured by an ELISA kit (Immunobiology Research Institute).
Concentration at which the amount of VEGF expressed by low oxygen stimulation was suppressed to 50% (IC50 value) was determined and results are shown in Table 9. […] The activities of 11107F and 11107G were very weak.
In general terms: An ELISA detects its analyte on a solid surface through an enzyme-linked reagent.

The test system of experiment [2] is Dami human blood megakaryocytic cell. Description: Growth suppressing activity to leukemia cell, Alamar Blue. As to conditions: 72 h, 3 days, read-out: Multiplication suppressing activity IC50. Here is the method:
(§1) Dami human blood megakaryocytic cell, MOLT 4 human acute lymphoblastic cell, K562 human chronic myelogenous cell, U937 human histcytic lymphoma and p388 mouse lymphoma cultured in RPMI 1640 (manufactured by SIGMA Co., Ltd.) containing 10% fetal calf serum were dispensed in 96-well plates by 2×10^3 cells/180 μl, and they were cultured at 37° C. overnight in a CO2 incubator (5% CO2). Then, 20 μL of the above-mentioned incubation solution containing 11107B diluted with 2-fold succession was added, and they were further cultured in a CO2 incubator for 3 days.
(§2) 20 μL of Alamar Blue reagent (Biosource Co.) was added to the cultured cell, and fluorescence activity (ex 530 nm/em 590 nm) was measured by a micro plate reader (ARBO, Perkin-Elmer Co.) after 3 to 5 hours. The cell growth of the control to which the compound is not added is set as 100%, the concentration at which it was suppressed by 50% was determined.
On the technique in general: The colour change of resazurin is a common sign of viable cells or microbes.

The test system of experiment [3] is K562 human chronic myelogenous cell. The description is as above. Conditions: 72 h, K562, 3 days, read-out: Multiplication suppressing activity IC50. Here is the method: as §1, §2
Experiment [4] concerns MOLT 4 human acute lymphoblastic cell. Described as above. Conditions: MOLT-4, 72 h, MOLT4, 3 days, read-out: Multiplication suppressing activity IC50. As to the method: as §1, §2
In experiment [5] the test system is U937 human histcytic lymphoma. Described as above. As to conditions: U-937, 72 h, U937, 3 days, read-out: Multiplication suppressing activity IC50. As to the method:
as §1, §2

The subject of a further experiment is p388 mouse lymphoma. Described as above. Conditions: 72 h, p388, 3 days, read-out: Multiplication suppressing activity IC50. As to the method: as §1, §2

Regarding `CCC(O)C(C)C1OC1CC(C)/C=C/C=C(\C)C1OC(=O)CC(O)CCC(C)(O)C(OC(C)=O)/C=C/C1C` (stereo not drawn) [11107B], in experiment [1], the “VEGF production suppression, in words” value is given as “suppressed most strongly VEGF production”. In addition, the half-maximal inhibitory concentration (IC50) (as a rule, the point on the concentration scale where inhibition reaches its midpoint) in experiment [2] came to 1.2 nM; in experiment [3], 2.1 nM; in experiment [4] it was 1.5 nM; in experiment [5] it was 1.1 nM; in the experiment on p388 mouse lymphoma, 2 nM.
